pIC50: −log10 of the molar value.
Columns and labels:
[1] = tested on: Human acute myeloid leukemia cell line KG1; assay: FGFR-dependent tumor cell proliferation inhibition activity test (CCK-8, 72 h); assay type: cell-based; details: Homo sapiens, KG-1, KG1 cells
From the text: Human acute myeloid leukemia cell line KG1 (FGFR1 fusion protein expressed in the cytoplasm, FGFR1-dependent tumor cell line) (ATCC, Cat. No. CCL-246), cell culture medium RPMI-1640 (Corning Cellgro, No. 10-040-CVR), fetal bovine serum (Life
Technologies, Cat. No. 10099-141) was purchased from the company; CCK-8 cell counting kit (DOJINDO, Cat. No. FK808). Adjustable wavelength microplate reader (Molecular Device, Cat. No. SpectraMax 190).
The inhibitory effect of the compound on KG1 proliferation was detected by CCK-8 Cell Counting Kit (Dojindo): Logarithmic growth phase cells were seeded in 96-well culture plate in appropriate density, 90 ul for each well. After cultured overnight, different concentrations of drugs were added and incubated for 72 h, while solvent control well was set (negative control). After the cells were treated by the compound for 72 h, 10 μL of CCK-8 reagent was added to each well. After incubated for 2-4 hours in a 37 □ incubator, the plate was read with SpectraMax 190 microplate reader at wavelength 450 nm.
The inhibition rate of compounds against cell proliferation is calculated by the following formula:
Inhibition rate (%)=(OD negative control well-OD administration well)/OD negative control well×100%.
(§1) The IC50 values were obtained by four-parameter regression analysis using the software supplied with the microplate reader.

[2] = target: T1, FGFR1 (Homo sapiens, UniProt P11362); assay: FGFR kinase inhibitory activity experiment (ELISA, Poly(Glu,Tyr)4:1 substrate); assay type: biochemical; details: kinase recombinant protein FGFR1, ATP 5 μM
T1 construct: The reaction was initiated by addition of FGFR kinase domain recombinant protein diluted with 49 μL of reaction buffer; purchased Millipore 14-482
T1 sequence (P11362 478-767 limits assumed): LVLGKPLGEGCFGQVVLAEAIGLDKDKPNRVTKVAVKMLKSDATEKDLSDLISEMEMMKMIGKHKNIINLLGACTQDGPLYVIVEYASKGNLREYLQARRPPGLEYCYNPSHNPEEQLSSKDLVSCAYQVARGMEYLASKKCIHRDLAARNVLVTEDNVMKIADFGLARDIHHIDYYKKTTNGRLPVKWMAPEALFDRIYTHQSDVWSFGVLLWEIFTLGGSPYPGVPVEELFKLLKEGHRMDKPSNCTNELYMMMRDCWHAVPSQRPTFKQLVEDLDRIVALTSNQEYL
Method: Precision electronic balance (Sartotius, Cat. No. BP210D), adjustable wavelength microplate reader (Molecular Device, Cat. No. SpectraMax 190).
After the liquid was removed from the wells, the plate was washed for three times with 200 μL/well of T-PBS (PBS containing 0.1% Tween-20) for 5 minutes each time. The enzyme plate was dried at 37° C. in a dryer for 1-2 hours.
50 μL ATP solution diluted with reaction buffer (50 mM HEPES pH 7.4, 50 mM MgCl2, 0.5 mM MnCl2, 0.2 mM Na3VO4, 1 mM DTT) was added into each well at a 5 μM final concentration. The compounds were diluted to appropriate concentration in DMSO, 1 μL/well or containing the corresponding concentrations of DMSO (negative control wells). The reaction was initiated by addition of FGFR kinase domain recombinant protein diluted with 49 μL of reaction buffer. Two control wells without enzyme were set in each experiment. The plate was placed on a shaker (100 rpm) at 37° C. for 1 hour. The plate was washed with T-PBS for three times. 100 μL/well of primary antibody PY99 dilution was added, and incubated at 37° C. for 0.5 hour on a shaker (100 rpm). The plate was washed with T-PBS for three times. 100 μL/well of horseradish peroxidase-labeled secondary anti-goat anti-mouse IgG dilution was added and incubated at 37° C. for 0.5 hour on a shaker (100 rpm). The plate was washed with T-PBS for three times. 100 μL/well of 2 mg/mL OPD coloration solution (diluted with 0.1 M citric acid-sodium citrate buffer containing 0.03% H2O2 (pH=5.4)) was added, and incubated in darkness for 1-10 minutes at 25° C. The reaction was quenched with 50 μL/well 2M H2SO4, and read at 490 nm using a tunable microplate microplate reader SPECTRA MAX 190.
The inhibition ratio of the sample was determined by the following formula: […]
as §1

pIC50 [2] | Compound | pIC50 [1]
> 7.00 | C=CC(=O)N1CCC(Cn2nc3c(=O)[nH]nc(N)c3c2-c2oc3ccc(C)cc3c2C)CC1 [Compound A38, 2-[(1-acryloylpiperidin-4-yl)methyl]-4-amino-3-(3,5-dimethyl-1-benzofuran-2-yl)-2,6-dihydro-7H-pyrazolo[3,4-d]pyridazin-7-one] | 
> 7.00 | C=CC(=O)N1CC(Cn2nc3c(=O)[nH]nc(N)c3c2-c2oc3ccc(C)cc3c2C)C1 [Compound A45, 2-[(1-acryloylazetidin-3-yl)methyl]-4-amino-3-(3,5-dimethyl-1-benzofuran-2-yl)-2,6-dihydro-7H-pyrazolo[3,4-d] pyridazin-7-one] | 
> 7.00 | Cc1c(-c2c3c(N)n[nH]c(=O)c3nn2C2CCN(C(=O)/C=C/CNC3CC3)CC2)oc2ccc(Cl)cc12 [Compound A56, 4-amino-3-(5-chloro-3-methyl-1-benzo-furan-2-yl)-2-{1-[(2E)-4-(cyclopropyl-amino)but-2-enoyl]piperidin-4-yl}-2,6-dihydro-7H-pyrazolo[3,4-d]pyridazin-7-one] | 

More lines, now with the values behind:

Compound | pIC50 [2] | pIC50 [1]
Cc1ccc2oc(-c3c4c(N)n[nH]c(=O)c4nn3-c3ccccc3)c(C)c2c1 [Compound A4, 4-amino-3-(3,5-dimethyl-1-benzofuran-2-yl)-2-phenyl-2,6-dihydro-7H-pyrazolo [3,4-d]pyridazine-7-one] |  | 6.00 to 7.00
Cc1c(-c2c3c(N)n[nH]c(=O)c3nn2-c2ccccc2)oc2ccc(Cl)cc12 [Compound A7, 4-amino-3-(5-chloro-3-methyl-1-benzo-furan-2-yl)-2-phenyl-2,6-dihydro-7H-pyrazolo[3,4-d]pyridazin-7-one] | > 7.00 | 6.00 to 7.00
Cc1c(-c2c3c(N)n[nH]c(=O)c3nn2-c2ccccc2)oc2cc(F)ccc12 [Compound A8, 4-amino-3-(6-fluoro-3-methyl-1-benzo-furan-2-yl)-2-phenyl-2,6-dihydro-7H-pyrazolo[3,4-d]pyridazin-7-one] | > 7.00 | 6.00 to 7.00
Cc1ccc2oc(-c3c4c(N)n[nH]c(=O)c4nn3-c3ccc(NCN(C)C)cc3)c(C)c2c1 [Compound A9, 4-amino-3-(3,5-dimethyl-1-benzofuran-2-yl)-2-(4-{[(dimethylamino)methyl]amino}phenyl)-2,6-dihydro-7H-pyrazolo[3,4-d]pyridazin-7-one] | > 7.00 | 6.00 to 7.00
Cc1ccc2oc(-c3c4c(N)n[nH]c(=O)c4nn3C3CCN(C(=O)/C=C/CN4CCC4)CC3)c(C)c2c1 [Compound A31, 4-amino-2-{1-[(2E)-4-(azetidin-1-yl)but-2-enoyl]piperidin-4-yl}-3-(3,5-dimethyl-1-benzofuran-2-yl)-2,6-dihydro-7H-pyrazolo[3,4-d]pyridazin-7-one] | > 7.00 | 
C=CC(=O)Nc1ccc(-n2nc3c(=O)[nH]nc(N)c3c2-c2oc3ccc(C)cc3c2C)cc1N(C)CCN(C)C [Compound A32, N-(4-[4-amino-3-(3,5-dimethyl-1-benzo-furan-2-yl)-7-carbonyl-6,7-dihydro-2H-pyrazolo[3,4-d]pyridazin-2-yl]-2-{[(dimethylamino)ethyl](methyl)amino}phenyl)prop-2-enamide] | > 7.00 | 
Cc1ccc2oc(-c3c4c(N)n[nH]c(=O)c4nn3C3CCN(C(=O)/C=C/CN(C)C4CC4)CC3)c(C)c2c1 [Compound A34, 4-amino-2-(1-{(2E)-4-[cyclopropyl (methyl)amino]but-2-enoyl}piperidin-4-yl)-3-(3,5-dimethyl-1-benzofuran-2-yl)-2,6-dihydro-7H-pyrazolo[3,4-d] pyridazin-7-one] | > 7.00 | 
Cc1ccc2oc(-c3c4c(N)n[nH]c(=O)c4nn3C3CCN(CCN(C)C)CC3)c(C)c2c1 [Compound A36, 4-amino-2-{1-[2-(dimethylamino)ethyl]piperidin-4-yl}-3-(3,5-dimethylbenzofuran-2-yl)-2H-pyrazolo[3,4-d]pyridazin-7(6H)-one] | > 7.00 | 

Source: patent US20190135818A1 (SHANGHAI INSTITUTE OF MATERIA MEDICA, CHINESE ACADEMY OF …, priority 2016, published 2019)
